Read-outs that look alike come from different tables or passages of the source.
How the values were obtained:
[1] = target: α-glucosidase rat intestine enzyme; assay: α-Glucosidase inhibitory activity assay (rat intestinal acetone powder, maltose substrate); assay type: biochemical; details: 10 mM maltose, pH 6.9, 37°C, 10 min, mean ± SD, triplicate
Protocol: First, rat intestinal acetone powder (1 g) was suspended in 30 mL of normal saline. This suspended solution was sonicated for five minutes at 4°C. After centrifugation (12,000 rpm, 30 minutes, 4°C), the resulting supernatant was used for the assay. Briefly, a mixture of 10 μL samples, 30 μL of 0.1 M phosphate buffer (pH 6.9), 20 μL of 10 mM maltose, 80 μL glucose kit, and 20 μL of enzyme supernatant were incubated in 96-well plates at 37°C for 10 minutes. Acarbose was used as a standard. The absorbance was recorded at 490 nm by microplate reader (Biotek ELx800UV). The inhibitory activity was determined from the formula as follows:(2) Inhibition%=Ablank−Asample/Ablank×100 where Ablank = Aenzyme reaction − Ablank of enzyme reaction and Asample = Asample reaction − Ablank of sample reaction.

[2] = ABTS radical cation scavenging assay; details: for ABTS IC50: 4 min, room temperature, 734 nm, mean ± SD, triplicate; for IC50: same result expressed in μM
Protocol: Free radical scavenging by ABTS radical was based on the method described previously by us. […] Those two solutions were mixed and incubated for 12-16 hours to obtain ABTS radical cation solution which is a dark blue solution. It was added with ± 274 mL of ethanol to give an absorbance of 0.7 ± 0.02 units at 734 nm for making a working solution. 1 mL of working solution was mixed with 10 μL of samples (n-hexane, dichloromethane, ethyl acetate, methanol, and water extracts) at maximum dissolved concentration in DMSO and mixed well. Finally, the mixed sample solution was incubated for four minutes at room temperature; then, the absorbance (As) of the reaction mixture was measured by UV-Vis spectrophotometers at 734 nm. The mixed solution between DMSO and the working solution was used as blank to give the blank absorbance (Ab). Trolox was used as a standard. […] The IC50 value was expressed as a quantity of an extract inhibitory concentration against a half of ABTS radicals.

[3] = DPPH radical scavenging assay; details: 20 min, room temperature, 517 nm; mean ± SD, triplicate
Protocol: First, DPPH solution (6 × 10^−5 M) was separated by dissolving 2.37 mg of DPPH in 100 mL of methanol to obtain a working solution. […] Finally, the mixed sample solution was incubated for 20 minutes at room temperature. Then, the absorbance (As) of the reaction mixture was measured by UV-Vis spectrophotometer at 517 nm. The mixed solution between methanol and the working solution was used as blank to give the blank absorbance (Ab). Gallic acid was used as a standard. The inhibitory activity was calculated by (1).

[4] = in vitro, C. odorata leaves; cited from earlier work

| SMILES | α-Glucosidase inhibition IC50 [1] [µg/mL] | ABTS IC50 [2] [µg/mL] | IC50 [2] [µM] | other results |
| --- | --- | --- | --- | --- |
| O=C(O)c1cc(O)c(O)c(O)c1 [Gallic acid, gallic acid] |  |  |  | DPPH IC50 [3]: 1.11 ± 0.42 µg/mL |
| Cc1c(C)c2c(c(C)c1O)CCC(C)(C(=O)O)O2 (centres unmarked) [Trolox, 6-hydroxy-2,5,7,8-tetramethylchromen-2-carboxylate acid] |  | 7.84 ± 0.45 | 31.3 |  |
| O=C1O[C@H]([C@@H](O)CO)C(O)=C1O [ascorbic acid] |  |  |  | ABTS IC50 [4]: 1000 µg/mL |

The next lines start with results.

| α-Glucosidase inhibition IC50 [1] [µg/mL] | ABTS IC50 [2] [µg/mL] | IC50 [2] [µM] | SMILES | other results |
| --- | --- | --- | --- | --- |
| >62.5 | 7.51 ± 1.57 | 23.7 | COc1cc(O)c2c(c1)OC(c1cc(O)ccc1OC)CC2=O (centres unmarked) [Odoratenin (1), 5,3'-dihydroxy-7,6'-dimethoxyflavanone] |  |
| 7.67 ± 1.86 |  |  | C[C@H]1O[C@H](O[C@H]2[C@H](O)[C@@H](O)[C@@H](O[C@H]3[C@H](O)[C@@H](O)C(O)O[C@@H]3CO)O[C@@H]2CO)[C@H](O)[C@@H](O)[C@@H]1N[C@H]1C=C(CO)[C@@H](O)[C@H](O)[C@H]1O (some centres unmarked) [Acarbose, acarbose] |  |
